Test results published in patent US11534457B2, “Use of dextran sulfate” (priority 2017, dated 2022).

How the values were obtained:
[1] = tested on: MBP expression in human Schwann cells; assay: Myelin basic protein (MBP) immunostaining; assay type: cell-based; settings: 48 h
Procedure: Neurons were cultured as 40,000 cells per well and Schwann cells 3,000 cells per. Cells were treated after 24 hours. The number of cells per well depended on the growth phenotype, proliferative capacity, etc.
Schwann cells growth medium was prepared by adding 10% of fetal bovine serum (FBS, PAA) to high-glucose DMEM and pre-warmed to 37° C. Cells were thawed in a 37° C. water bath for no longer than 2 min. Cells were gently transferred to a tube containing 10 ml of medium and centrifuged at 200 RCF for 5 min. Pellet was resuspended in 5 ml of medium and cells were counted with the Cellometer. 3,000 cells per well were seeded in previously coated 96-well plates. Cells were incubated at 37° C. with 5% CO2. Cells were allowed to settle for 24 hours before drug treatment.
LMW-DS was prepared in the culture media of choice for each cell line and added to the respective wells in the doses 0.01 and 0.1 mg/ml. For cell survival assays cells were analyzed after 24 and 48 hours in eight identical wells/dose/time point. Differentiation and protein expression assay was analyzed after 48 hours, also in octuplicates.
Cells were fixated in the wells. […]
The Acumen cytometer allows the direct cytometric analysis of attached cells without prior detachment. […] The protein content of the cells can also be directly measured and expressed as either ‘total protein content’ or ‘mean protein content’.

[2] = tested on: SAg system [PBMC and HUVEC+TCR ligands]; assay: BioMAP SAg system; assay type: cell-based, Human
Excerpt: In this study LMW-DS was characterized by profiling in the BioMAP® Diversity PLUS panel. The BioMAP® panel consists of human primary cell-based systems designed to model different aspects of the human body in an in vitro format. The 12 systems in the BioMAP® Diversity PLUS panel (Table 32) allow test agent characterization in an unbiased way across a broad set of systems modeling various human disease states. The BioMA®P systems are constructed with one or more primary cell types from healthy human donors, with stimuli, such as cytokines or growth factors, added to capture relevant signaling networks that naturally occur in human tissue or pathological conditions. […]
Systems are derived from either single cell types or co-culture systems. […] Test agents prepared in either DMSO (small molecules; final concentration 0.1%) or PBS (biologics) are added at the indicated concentrations 1-hr before stimulation, and remain in culture for 24-hrs or as otherwise indicated (48-hrs, MyoF system; 72-hrs, BT system (soluble readouts); 168-hrs, BT system (secreted IgG)). […] Soluble factors from supernatants are quantified using either HTRF® detection, bead-based multiplex immunoassay or capture ELISA. Overt adverse effects of test agents on cell proliferation and viability (cytotoxicity) are detected by sulforhodamine B (SRB) staining, for adherent cells, and alamarBlue® reduction for cells in suspension. […]

Substance: low molecular weight dextran sulfate [LMW-DS]
- MBP expression ([1]; 0.01 and 0.1 mg/ml): significantly increased
- size of MBP-positive cells vs control [1]: larger
- Increased biomarker activity [2]: IL-8
